Reference: PubChem BioAssay AID2060893 (Molecular Pharmacology Branch, DTP, NCI, 2025)

Test system: K86415-001-R-J1-PDC complex spheroids, viability
Assay: Anticancer human tumor K86415-001-R-J1-PDC patient-derived lung adenocarcinoma cell line growth inhibition [RAS]
Conditions: for IC50: curve of first compound; for viability, T/C: stronger effect = lower value
Summary of the method: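 Tumour cells grown as complex spheroids with HUVEC endothelial cells and mesenchymal stem cells, treated with RAS pathway inhibitor combinations. Each agent spans half-log steps from near clinical Cmax, or 10 microM where Cmax is unknown.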
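Also: spheroids exposed to agents for seven days before readout.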

CC(C)NCC(C(=O)N1CCN(c2ncnc3c2C(C)CC3O)CC1)c1ccc(Cl)cc1 (centres undefined) + CCn1c(-c2cc(N3CCN(C)CC3)cnc2C(C)OC)c2c3cc(ccc31)-c1csc(n1)CC(NC(=O)C1CC1C)C(=O)N1CCCC(N1)C(=O)OCC(C)(C)C2
IC50 (second compound 0.000949 µM): 43 nM
IC50 (second compound 0.003 µM): < 31.6 nM
IC50 (second compound 0.00949 µM): < 31.6 nM
IC50 (second compound 0.03 µM): < 31.6 nM
IC50 (second compound 0.0949 µM): < 31.6 nM
IC50 (second compound 0.3 µM): < 31.6 nM
viability, T/C (second compound 0.000949 µM, first compound 0.0316 µM): 52.1%
viability, T/C (second compound 0.000949 µM, first compound 0.1 µM): 48.3%
viability, T/C (second compound 0.000949 µM, first compound 0.316 µM): 28.8%
viability, T/C (second compound 0.000949 µM, first compound 1 µM): 31.1%
viability, T/C (second compound 0.000949 µM, first compound 3.16 µM): 29%
viability, T/C (second compound 0.000949 µM, first compound 10 µM): 13.3%
viability, T/C (second compound 0.003 µM, first compound 0.0316 µM): 25%
viability, T/C (second compound 0.003 µM, first compound 0.1 µM): 15.2%
viability, T/C (second compound 0.003 µM, first compound 0.316 µM): 13.7%
viability, T/C (second compound 0.003 µM, first compound 1 µM): 16%
viability, T/C (second compound 0.003 µM, first compound 3.16 µM): 10.4%
viability, T/C (second compound 0.003 µM, first compound 10 µM): 3.32%
viability, T/C (second compound 0.00949 µM, first compound 0.0316 µM): 12.1%
viability, T/C (second compound 0.00949 µM, first compound 0.1 µM): 15.4%
viability, T/C (second compound 0.00949 µM, first compound 0.316 µM): 6.91%
viability, T/C (second compound 0.00949 µM, first compound 1 µM): 4.13%
viability, T/C (second compound 0.00949 µM, first compound 3.16 µM): 1.63%
viability, T/C (second compound 0.00949 µM, first compound 10 µM): 1%
viability, T/C (second compound 0.03 µM, first compound 0.0316 µM): 5.32%
viability, T/C (second compound 0.03 µM, first compound 0.1 µM): 4.39%
viability, T/C (second compound 0.03 µM, first compound 0.316 µM): 3.56%
viability, T/C (second compound 0.03 µM, first compound 1 µM): 1.38%
viability, T/C (second compound 0.03 µM, first compound 3.16 µM): 0.66%
viability, T/C (second compound 0.03 µM, first compound 10 µM): 0.65%
viability, T/C (second compound 0.0949 µM, first compound 0.0316 µM): 2.69%
viability, T/C (second compound 0.0949 µM, first compound 0.1 µM): 3.08%
viability, T/C (second compound 0.0949 µM, first compound 0.316 µM): 1.6%
viability, T/C (second compound 0.0949 µM, first compound 1 µM): 0.75%
viability, T/C (second compound 0.0949 µM, first compound 3.16 µM): 0.62%
viability, T/C (second compound 0.0949 µM, first compound 10 µM): 0.56%
viability, T/C (second compound 0.3 µM, first compound 0.0316 µM): 2.88%
viability, T/C (second compound 0.3 µM, first compound 0.1 µM): 1.88%
viability, T/C (second compound 0.3 µM, first compound 0.316 µM): 1.86%
viability, T/C (second compound 0.3 µM, first compound 1 µM): 0.88%
viability, T/C (second compound 0.3 µM, first compound 3.16 µM): 0.75%
viability, T/C (second compound 0.3 µM, first compound 10 µM): 0.84%

CC1(O)CCCC1n1c(=O)c(C(F)F)cc2cnc(NC3CCN(S(C)(=O)=O)CC3)nc21 (centres undefined) + C=CC(=O)N1CCN(c2nc(OCC3CCCN3C)nc3c(F)c(-c4nc(N)cc(C)c4C(F)(F)F)c(Cl)cc23)C(C)C1
IC50 (second compound 0.00316 µM): < 31.6 nM
IC50 (second compound 0.01 µM): < 31.6 nM
IC50 (second compound 0.0316 µM): < 31.6 nM
IC50 (second compound 0.1 µM): < 31.6 nM
IC50 (second compound 0.316 µM): < 31.6 nM
IC50 (second compound 1 µM): < 31.6 nM
viability, T/C (second compound 0.00316 µM, first compound 0.0316 µM): 14.8%
viability, T/C (second compound 0.00316 µM, first compound 0.1 µM): 16.9%
viability, T/C (second compound 0.00316 µM, first compound 0.316 µM): 17.3%
viability, T/C (second compound 0.00316 µM, first compound 1 µM): 20.2%
viability, T/C (second compound 0.00316 µM, first compound 3.16 µM): 28.1%
viability, T/C (second compound 0.00316 µM, first compound 10 µM): 5.41%
viability, T/C (second compound 0.01 µM, first compound 0.0316 µM): 13.1%
viability, T/C (second compound 0.01 µM, first compound 0.1 µM): 12.6%
viability, T/C (second compound 0.01 µM, first compound 0.316 µM): 12.4%
viability, T/C (second compound 0.01 µM, first compound 1 µM): 12.3%
viability, T/C (second compound 0.01 µM, first compound 3.16 µM): 18.6%
viability, T/C (second compound 0.01 µM, first compound 10 µM): 5.34%
viability, T/C (second compound 0.0316 µM, first compound 0.0316 µM): 12.2%
viability, T/C (second compound 0.0316 µM, first compound 0.1 µM): 10.1%
viability, T/C (second compound 0.0316 µM, first compound 0.316 µM): 10.1%
viability, T/C (second compound 0.0316 µM, first compound 1 µM): 14.8%
viability, T/C (second compound 0.0316 µM, first compound 3.16 µM): 16.2%
viability, T/C (second compound 0.0316 µM, first compound 10 µM): 4.92%
viability, T/C (second compound 0.1 µM, first compound 0.0316 µM): 12.1%
viability, T/C (second compound 0.1 µM, first compound 0.1 µM): 10.8%
viability, T/C (second compound 0.1 µM, first compound 0.316 µM): 10.5%
viability, T/C (second compound 0.1 µM, first compound 1 µM): 11.5%
viability, T/C (second compound 0.1 µM, first compound 3.16 µM): 19.4%
viability, T/C (second compound 0.1 µM, first compound 10 µM): 4.11%
viability, T/C (second compound 0.316 µM, first compound 0.0316 µM): 11.4%
viability, T/C (second compound 0.316 µM, first compound 0.1 µM): 11.6%
viability, T/C (second compound 0.316 µM, first compound 0.316 µM): 11.4%
viability, T/C (second compound 0.316 µM, first compound 1 µM): 11.4%
viability, T/C (second compound 0.316 µM, first compound 3.16 µM): 16.2%
viability, T/C (second compound 0.316 µM, first compound 10 µM): 5.89%
viability, T/C (second compound 1 µM, first compound 0.0316 µM): 10.4%
viability, T/C (second compound 1 µM, first compound 0.1 µM): 10.3%
viability, T/C (second compound 1 µM, first compound 0.316 µM): 13.7%
viability, T/C (second compound 1 µM, first compound 1 µM): 14.7%
viability, T/C (second compound 1 µM, first compound 3.16 µM): 18.9%
viability, T/C (second compound 1 µM, first compound 10 µM): 5.93%
